Measured values as given in patent US4057530A, “2-Phenyl-indole derivatives and process for preparing the same” (priority 1974, dated 1977).

Tests used:
[1] = Static thermostability of stabilized resin, simplified method (GARDNER sub-scale), Compound A; conditions: 210° C; for Colouration given to the polymer: 0 and 3 min
Procedure: (§1) The stabilizing power of the substances of the invention was studied from two points of view:
(§2) These studies were performed with six different formulae of vinyl resins (hereinafter referred to as Compounds).
(§3) The different compounds were mixed and calendered in a mixer of which the cylinders were heated to 160° C. The rigid sheets so obtained were then heated in an oven to a temperature between 180° C and 215° C, until incipient carbonization.
(§4) A stove with rotating drums, ventilated and equipped with a thermostat was used for this operation. In the trials described hereunder, the behaviour of a sheet containing the stabilizer to be tested was compared to that of a sheet of the same formula but containing 2-phenyl-indole as stabilizer.
2. It is also possible to use a simplified method which is more rapid and with which valid results are also obtained: a reference scale is drawn up with sheets of thermally treated polyvinyl chloride, of which the colourations have been definitely determined in GARDNER degrees as above. A GARDNER sub-scale is thus obtained in polyvinyl chloride sheets which can be directly compared to the sheets to be tested without using the comparator.
Finally, trials were carried out with Stabilizers 15, 16 and 17 and with 2-phenyl-indole. Compound A was used and the temperature was 210° C.

mice = assay: Acute toxicity by oral route in mice (LD50); format: in vivo; conditions: LD50 study
Procedure: (§5) The study of the acute toxicity of the stabilizers listed below was carried out by determining the dose of substance which provoked the death of 50% of the treated animals (LD50). A gummy suspension of the substance under study was administered by oral route to groups of at least ten mice and the following results were observed: […]

[2] = Acute toxicity by oral route in mice (LD50); format: in vivo; conditions: mouse, in vivo, gummy suspension
Procedure: as §5

[3] = Static thermostability of stabilized resin, GARDNER Scale Comparator, Compound A; conditions: 185° C
Procedure: as §1, §2, §3, §4
1. The colouration of the sheets, of which samples were removed from the stove at fixed intervals was compared to a standard scale of colouration, known as the GARDNER Scale, and expressed in terms of the reference figures of the GARDNER Scale.
Comparisons were made with a GARDNER Scale Comparator which contains 18 filters of coloured glass and which offers the possibility of observing by transparency and in a limited field of view both the sheet and the reference filters.

Row | Structure (SMILES) | Static thermostability compared with 2-phenyl-indole [1] | Colouration of sheet (GARDNER sub-scale) ([1]; 0 min) [GARDNER degrees] | Colouration of sheet (GARDNER sub-scale) ([1]; 3 min) [GARDNER degrees] | Colouration of sheet (GARDNER sub-scale) ([1]; 6 min) [GARDNER degrees] | Colouration of sheet (GARDNER sub-scale) ([1]; 9 min) [GARDNER degrees] | Colouration of sheet (GARDNER sub-scale) ([1]; 12 min) [GARDNER degrees] | Colouration of sheet (GARDNER sub-scale) ([1]; 15 min) | Colouration of sheet (GARDNER sub-scale) ([1]; 18 min) | Toxic symptoms (mice) | LD50 [2] [mg/kg] | also measured
1 | CCOC(=O)COc1ccc(-c2cc3ccccc3[nH]2)cc1 [Stabilizer 13, 2-(4'-carbethoxymethoxy-phenyl)-indole] | markedly superior to 2-phenyl-indole | 2 | 2 | 3 | 3 | 9 | 11 GARDNER degrees | burnt | – | – | –
2 | CSc1ccc(-c2cc3ccccc3[nH]2)cc1 [Stabilizer 3, 2-(4'-methylthio-phenyl)-indole] | markedly superior to 2-phenyl-indole | 1 | 1 | 2 | 3 | 8 | 10 GARDNER degrees | – | none | > 3000 | –
3 | CC(=O)Nc1ccc(-c2cc3ccccc3[nH]2)cc1 [Stabilizer 14, 2-(4'-N-acetylamino-phenyl)-indole] | slightly superior to 2-phenyl-indole | 2 | 2 | 3 | 4 | 8 | 12 GARDNER degrees | burnt | – | – | –
4 | CC(C)Sc1ccc(-c2cc3ccccc3[nH]2)cc1 [Stabilizer 17, 2-(4'-isopropylthio-phenyl)-indole] | very rapidly found to be superior to 2-phenyl-indole | 1 | 1 | 2 | 4 | 10 | 13 GARDNER degrees | burnt | – | – | Colouration of sheet (GARDNER Scale) ([3]; 0 min): 1 GARDNER degrees; Colouration of sheet (GARDNER Scale) ([3]; 6 min): 1 GARDNER degrees; Colouration of sheet (GARDNER Scale) ([3]; 12 min): 2 GARDNER degrees; Colouration of sheet (GARDNER Scale) ([3]; 18 min): 4 GARDNER degrees; Colouration of sheet (GARDNER Scale) ([3]; 24 min): 9 GARDNER degrees; Colouration of sheet (GARDNER Scale) ([3]; 30 min): 11 GARDNER degrees; Colouration of sheet (GARDNER Scale) ([3]; 36 min): 12 GARDNER degrees; Colouration of sheet (GARDNER Scale) ([3]; 42 min): 13 GARDNER degrees; Colouration of sheet (GARDNER Scale) ([3]; 48 min): 14 GARDNER degrees; Colouration of sheet (GARDNER Scale) ([3]; 54 min): burnt
5 | Nc1ccc(-c2cc3ccccc3[nH]2)cc1 [Stabilizer 22, 2-(4'-amino-phenyl)-indole] | developed less rapidly than that due to 2-phenyl-indole | 2 | 3 | 3 | 4 | 6 | 12 GARDNER degrees | burnt | – | – | Colouration given to the polymer [1]: relatively strong yellow colouration
6 | O=C(O)COc1ccc(-c2cc3ccccc3[nH]2)cc1 [Stabilizer 12, 2-(4'-carboxymethoxy-phenyl)-indole] | developed less rapidly than those due to 2-phenyl-indole | 2 | 2 | 3 | – | – | brown | burnt | – | – | –
7 | CC(=O)Oc1ccc(-c2cc3ccccc3[nH]2)cc1 [Stabilizer 4, 2-(4'-acetoxy-phenyl)-indole] | – | – | – | – | – | – | – | – | none | > 3000 | –
8 | c1ccc(-c2ccc(-c3cc4ccccc4[nH]3)cc2)cc1 [Stabilizer 26, 2(4'-phenyl-phenyl)-indole] | markedly superior to 2-phenyl-indole | 2 | 2 | 3 | 4 | 5 | 12 GARDNER degrees | 14 GARDNER degrees | – | – | –
9 | Oc1ccc(-c2cc3ccccc3[nH]2)cc1 [Stabilizer 20, 2-(4'-hydroxy-phenyl)-indole] | markedly superior to 2-phenyl-indole | 1 | 1 | 2 | 4 | 9 | 11 GARDNER degrees | – | none | > 3000 | –
10 | CCOC(=O)C(C)(C)Oc1ccc(-c2cc3ccccc3[nH]2)cc1 [Stabilizer 5, 2-(4'-carbethoxyisopropyloxy-phenyl)-indole] | markedly superior to 2-phenyl-indole | – | – | – | – | – | – | – | none | > 3000 | –
11 | Nc1cccc(-c2cc3ccccc3[nH]2)c1 [Stabilizer 11, 2-(3'-amino-phenyl)-indole] | developed less rapidly than that due to 2-phenyl-indole | 3 | 3 | 4 | 5 | 10 | 12 GARDNER degrees | burnt | – | – | Colouration given to the polymer [1]: relatively intense yellow colouration
12 | O=C(Oc1ccc(-c2cc3ccccc3[nH]2)cc1)c1ccccc1 [Stabilizer 6, 2-(4'-benzoyloxy-phenyl)-indole] | – | – | – | – | – | – | – | – | none | > 4000 | –
13 | O=C(Nc1ccccc1-c1cc2ccccc2[nH]1)c1ccccc1 [Stabilizer 25, 2-(2'-N-benzoylamino-phenyl)-indole] | slightly superior to 2-phenyl-indole | 2 | 2 | 4 | 6 | 9 | 12 GARDNER degrees | burnt | – | – | –
